Assay results: patent publication US20040228872A1 (priority 2003, published 2004)

Legend:
foreleg flexor muscles = settings: mouse, in vivo
[1] = tested on: orbicularis oculi muscles; settings: guinea pig, in vivo
[2] = in vivo; cited from earlier work

O=c1c(-c2ccc(O)cc2)coc2cc(O)cc(O)c12 [genistein, 5,7-dihydroxy-3-(4-hydroxyphenyl)-4H-1-benzopyran-4-one]
Grip strength recovery (percent of untreated baseline grip strength) (foreleg flexor muscles): retarded
Delay of time to 50% recovery of blinks (blink amplitude) [1]: approximately 10 days
Recovery of blinks after surgery [1]: full recovery within a week
Reduction of blink amplitude after surgery [1]: ≤ 10%
Tolerability of dietary intake [2]: without obvious ill effects
